Data as given in ChEMBL document CHEMBL1201862, “PubChem BioAssay data set” (2004).
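Results reflect a 48-hour exposure of cells in 96-well plates to compound at five concentrations. The concentration for 50% growth inhibition is given as GI50.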 Active and inactive are the calls of the source. Cut-off read from the data, not from the text of the source: active = GI50 up to about 1.1 µM and inactive = higher.

Experiments:
Assay in all cases: NCI anticancer screen, dose series, 48 h
HOP-92 = tested on: HOP-92
786-0 = tested on: 786-0
HCC 2998 = tested on: HCC 2998
CAKI-1 = tested on: CAKI-1
Malme-3M = tested on: Malme-3M
SN12C = tested on: SN12C
SF-295 = tested on: SF-295
A498 = tested on: A498
NCI-H23 = tested on: NCI-H23
SK-MEL-2 = tested on: SK-MEL-2
SK-MEL-28 = tested on: SK-MEL-28
ACHN = tested on: ACHN
HT-29 = tested on: HT-29
HL-60 = tested on: HL-60
OVCAR-3 = tested on: OVCAR-3
SW-620 = tested on: SW-620
CCRF-CEM = tested on: CCRF-CEM
SNB-19 = tested on: SNB-19

Row | Structure (SMILES) | GI50 (HOP-92) | GI50 (786-0) | GI50 (HCC 2998) | GI50 (CAKI-1) | GI50 (Malme-3M) | GI50 (SN12C) | GI50 (SF-295) | GI50 (A498) | GI50 (NCI-H23) | GI50 (SK-MEL-2) | GI50 (SK-MEL-28) | GI50 (ACHN) | GI50 (HT-29) | GI50 (HL-60) | GI50 (OVCAR-3) | GI50 (SW-620) | GI50 (CCRF-CEM) | GI50 (SNB-19)
1 | CCCCCC(=O)OC[n+]1ccc2c(C)c3[nH]c4ccccc4c3c(C)c2c1 | 2.48 µM (inactive) | 0.405 µM (active) | 0.787 µM (active) | 1.82 µM (inactive) | 1.54 µM (inactive) | 0.489 µM (active) | 0.946 µM (active) | 1.35 µM (inactive) | 0.857 µM (active) | 3.61 µM (inactive) | 1.43 µM (inactive) | 0.738 µM (active) | 0.482 µM (active) | 2.99 µM (inactive) | 1.19 µM (inactive) | 0.446 µM (active) |  | 
2 | O=C(O)C1=C(C(=O)O)Oc2ccccc2O1 | > 100 µM (inactive) | > 100 µM (inactive) | > 100 µM (inactive) | > 100 µM (inactive) | > 100 µM (inactive) | > 100 µM (inactive) | > 100 µM (inactive) | > 100 µM (inactive) | > 100 µM (inactive) | > 100 µM (inactive) | > 100 µM (inactive) | > 100 µM (inactive) | > 100 µM (inactive) | > 100 µM (inactive) | > 100 µM (inactive) | > 100 µM (inactive) | > 100 µM (inactive) | > 100 µM (inactive)
3 | CC(=O)OC(C)(C)[C@@H]1CC[C@]2(C)/C=C/[C@H](C)C[C@@H](O)C3=C(C)C[C@@H](O3)C12 (some centres undefined) | > 100 µM (inactive) | > 100 µM (inactive) | > 100 µM (inactive) | > 100 µM (inactive) | > 100 µM (inactive) | > 100 µM (inactive) | > 100 µM (inactive) | > 100 µM (inactive) | > 100 µM (inactive) | > 100 µM (inactive) | > 100 µM (inactive) | > 100 µM (inactive) | > 100 µM (inactive) | > 100 µM (inactive) | > 100 µM (inactive) | > 100 µM (inactive) | > 100 µM (inactive) | > 100 µM (inactive)
4 | CN(C)CCN(C)CCC(=O)/C=C/c1ccccc1 | 25.5 µM (inactive) | 15.6 µM (inactive) | > 45.5 µM (inactive) | 22.7 µM (inactive) | 18.4 µM (inactive) | 19 µM (inactive) | > 40.4 µM (inactive) | > 89.9 µM (inactive) | 27.1 µM (inactive) | 39.2 µM (inactive) | 20.1 µM (inactive) | 29.5 µM (inactive) | 20.8 µM (inactive) | 16.4 µM (inactive) | 27.7 µM (inactive) | 18.5 µM (inactive) | 3.48 µM (inactive) | > 93.3 µM (inactive)
5 | CC1C(=O)O[C@H]2C1CC[C@@]1(C)[C@H](O)CC[C@@]13C[C@]2(O)OO3 (some centres undefined) | > 100 µM (inactive) | > 100 µM (inactive) | > 100 µM (inactive) | > 100 µM (inactive) | > 100 µM (inactive) | > 100 µM (inactive) | > 100 µM (inactive) | > 100 µM (inactive) | > 100 µM (inactive) |  | > 100 µM (inactive) | > 100 µM (inactive) | > 100 µM (inactive) | > 100 µM (inactive) | > 100 µM (inactive) | > 100 µM (inactive) | > 100 µM (inactive) | > 100 µM (inactive)
6 | O=C(NO)c1ccc(O)c(O)c1 | > 100 µM (inactive) | > 100 µM (inactive) | > 100 µM (inactive) | > 100 µM (inactive) | > 100 µM (inactive) | > 100 µM (inactive) | 29.5 µM (inactive) | > 100 µM (inactive) | > 100 µM (inactive) |  | > 100 µM (inactive) | > 100 µM (inactive) | > 100 µM (inactive) | 9.77 µM (inactive) | > 100 µM (inactive) | 47.6 µM (inactive) | 42.1 µM (inactive) | > 100 µM (inactive)
